# Assay results published in patent US6083741A, “Internalisation of DNA, using conjugates of poly-l-lysine and an integrin receptor ligand” (Imperial College of Science Technology and Medicine, priority 1994, dated 2000).
# What was measured:
# [1] = system: COS-7 cells; experiment: Luciferase reporter gene transfection of COS-7 cells; format: cell-based; settings: 200 μm chloroquine
# Experimental: (§1) 5 μg of a luciferase reporter gene plasmid (pGL2 promega) was complexed with either the RGD-polylysine construct (possible structure of complex is shown in FIG. 1) or an equal concentration of polylysine in 100 μl of Optimem media (Gibco). The DNA/peptide complexes and also a DNA only control were then applied to 50% confluent cultured (Caco-2) colonic epithelial cells which were then allowed to express for 48 hours. The cells were then harvested and the cellular protein analysed for luciferase activity (Relative Light Units). The activity shown in FIG. 2 is adjusted to represent activity from 1 mg of cellular protein. In FIG. 2 the term "RGD peptide" is used to indicate the polylysine-integrin receptor binding protein described in Example 1.
# The polylysine-integrin receptor binding peptide of Example 1 was again used. Essentially the methodology of Example 2 was followed with the substitution of COS-7 cells, and the use of different concentrations of chloroquine. It can be seen that 200 μm chloroquine gave a 4-fold increase of expression, compared with no chloroquine.
# The methodology of Example 2 was repeated using COS-7 cells. In this experiment, different ratios of the K16 RGD peptide DNA were used with and without 100 μm chloroquine, with the results shown in FIG. 7. It can be seen that the optimum ratio was 37.5:1 in both the absence and presence of chloroquine.
# [2] = system: (Caco-2) colonic epithelial cells; experiment: Luciferase reporter gene (pGL2) internalisation and expression in Caco-2 cells; format: cell-based; settings: 5 μg pGL2 plasmid
# Experimental: as §1
# The procedure described in Example 2 was repeated but using the polylysine-integrin receptor binding peptide described in Example 3 instead of the polylysine-integrin receptor binding peptide described in Example 1. Control experiments were also performed.
# The polylysine-integrin receptor binding peptide of Example 1 was used in a repeat of the procedure of Example 2, but using 1 μg of luciferase reporter gene plasmid. The effect of chloroquine was also investigated.
Compound,cytopathic effects [1],improvement of expression by addition of chloroquine ([2]; 100 μM chloroquine vs no chloroquine),"optimal peptide-DNA transfection efficiency (luciferase activity, Relative Light Units per mg cellular protein) ([2]; absence of chloroquine, 48 hours expression, indirect comparison of FIG. 2 and FIG. 3)"
CCN(CC)CCCC(C)Nc1ccnc2cc(Cl)ccc12 (stereo not drawn) [chloroquine],cytopathic effects of chloroquine were apparent,–,–
(K)16 GGCRGDMFGCA [Example 3],–,~2 fold,~6×10^7 RLU/mg
